Here are results for five compounds from patent US20090068290A1, “BIFEPRUNOX DOSES FOR TREATING SCHIZOPHRENIA” (priority 2006, published 2009).

Series [1] can be described thus: Pooled metabolic analysis, 6-week studies: body weight. The conditions noted are these: 6-week placebo controlled trials, BX total doses, RISP 6 mg, OLZ 15 mg, HAL 10 mg; for Weight, Mean (SD) change from baseline: endpoint. An excerpt: (§1) OBJECTIVE: To examine the metabolic effects of bifeprunox in patients with acute and stable schizophrenia.
(§2) METHODS: Metabolic data was compiled from one 6-month and four 6-week studies (i.e., a treatment period) of bifeprunox in patients with stable and acute schizophrenia, respectively. In the 6-month study, patients received bifeprunox (n=331) or placebo (PBO) (n=166). […] Metabolic evaluations included body weight, body mass index (BMI), plasma glucose and lipid profiles. Fasting glucose and lipid values were assessed in one 6-week study and in the 6-month study. Triglyceride:HDL ratio (TG:HDL) was calculated as a marker of insulin resistance. No statistical analyses were performed; only descriptive statistics are presented.

Series [2] in a line: Pooled metabolic analysis, 6-week studies: lipid profile. To be noted: endpoint, 6-week studies, BX total, OLZ 15 mg.
From the text: as §1, §2

The subject of another series is CYP2C9, CYP3A4, CYP2D6. The experiment in a line: Metabolism and drug interactions of bifeprunox. To be noted: in vivo. The source says: The objective of this study is to assess the pharmacokinetics (PK) of bifeprunox. The PK of bifeprunox in healthy subjects were investigated based on a pooled analysis of PK parameters from 21 clinical pharmacology studies. The pooled analysis included PK profiles after single and multiple doses to 132 and 399 subjects, respectively, and explored the potential effects of age, gender, body weight, and race. In addition, PK in patients with schizophrenia were investigated using a population PK approach based on samples from 376 patients in phase II studies and 434 patients in phase III studies.

A short description of series [3]: Pharmacokinetic interaction of lithium and bifeprunox in healthy male subjects. The format is in vivo, human. How it is done: Because bifeprunox may be used in combination with the mood-stabilizing drug lithium for the treatment of patients with psychoses and mood disorders, the effect of multiple doses of bifeprunox on the pharmacokinetic (PK) profile of lithium was evaluated. Lithium has a narrow therapeutic index that can complicate therapy, and serum levels greater than 1.5 mmol/L carry a greater risk of lithium toxicity than do lower levels.
METHODS: This was a single center, double-blind, randomized, placebo-controlled, parallel-design study in 48 healthy male subjects. All subjects were to receive open-label lithium (450 mg) twice daily on days 1 through 8 and, provided serum levels were stable on days 5 through 7, again on days 9 through 20. Subjects whose serum levels were stable on days 5 through 7 were included in those randomized to receive, in addition to lithium 450 mg twice daily, either placebo or a rising dose of bifeprunox (0.025-40 mg) once daily on days 9 through 17, and placebo or bifeprunox 40 mg on days 18 through 21. Only a single morning dose of lithium 450 mg was administered on day 21. Lithium, steady-state Cmax, AUC over the dosing interval (0-t), and renal clearance (CL-R) values were compared between the bifeprunox and placebo groups using ANCOVA with baseline values of lithium measured on day 8 as covariate.

The mark [4] stands for this setting: non-fasting, RISP 6 mg, HAL 10 mg.
Where [5] appears, read: lithium 450 mg twice daily with bifeprunox up to 40 mg once daily, healthy male subjects.

Consider `Cc1nc2n(c(=O)c1CCN1CCC(c3noc4cc(F)ccc34)CC1)CCCC2` [RISP], for which the “≧7% weight increase, (%)” value in series [1] (baseline BMI 18.5-25 kg/m^2) is 7.3%; in series [1] (baseline BMI <18.5 kg/m^2), 20.0%; in series [1] (baseline BMI >25-30 kg/m^2), 13.3%; in series [1] (baseline BMI >30 kg/m^2), 8.5%; in series [1] (baseline BMI All), 9.8%. The entries for the “≧7% weight decrease, (%)” value in series [1] (baseline BMI >30 kg/m^2) and in series [1] (baseline BMI All) were 1.2% and 0.4%, respectively. Also, the “Weight, Mean (SD) change from baseline” value in series [1] (baseline BMI 18.5-25 kg/m^2) is recorded as 1.5 (2.2) kg; in series [1] (baseline BMI <18.5 kg/m^2) it was 0.9 (2.3) kg; in series [1] (baseline BMI >25-30 kg/m^2), 2.1 (3.2) kg; in series [1] (baseline BMI >30 kg/m^2), 1.6 (4.2) kg; in series [1] (baseline BMI All), 1.7 (3.3) kg. Further, the “Total cholesterol, Mean change (SD)” value in series [2] (setting [4]) is recorded as −2.6 (0.8) mg/dL. Besides, the “Triglycerides, Mean change (SD)” value in series [2] (setting [4]) is given as −7.4 (1.4) mg/dL.

Consider `[Li]` [lithium], for which the “PK of narrow therapeutic index compound on co-administration with bifeprunox” value with CYP2C9, CYP3A4, CYP2D6 is given as “did not affect the PK of these compounds to any relevant extent”. For the same compound, the “effect of co-administration of multiple doses of bifeprunox on lithium steady-state pharmacokinetics” value in series [3] (human, in vivo) is “no clinically relevant effect”. Moreover, in series [3] (setting [5]), the “lithium renal clearance CL-R, treatment ratio (bifeprunox vs placebo group, geometric least square means)” value turned out to be 0.94; the “lithium steady-state AUC(0-t), treatment ratio (bifeprunox vs placebo group, geometric least square means)” value came to 1.13; the “lithium steady-state Cmax, treatment ratio (bifeprunox vs placebo group, geometric least square means)” value is 1.11.

`O=C(CCCN1CCC(O)(c2ccc(Cl)cc2)CC1)c1ccc(F)cc1` [HAL]: the entries for the “≧7% weight decrease, (%)” value in series [1] (baseline BMI 18.5-25 kg/m^2) and in series [1] (baseline BMI All) were 3.6% and 2.0%, respectively. Besides, the “≧7% weight increase, (%)” value in series [1] (baseline BMI 18.5-25 kg/m^2) was 7.1%; in series [1] (baseline BMI All), 4.0%. For the same compound, the “Weight, Mean (SD) change from baseline” value in series [1] (baseline BMI 18.5-25 kg/m^2) is recorded as −0.0 (2.2) kg; in series [1] (baseline BMI <18.5 kg/m^2), 1.4 (1.3) kg; in series [1] (baseline BMI >25-30 kg/m^2), −1.1 (1.8) kg; in series [1] (baseline BMI >30 kg/m^2), 0.4 (2.1) kg; in series [1] (baseline BMI All), −0.1 (2.1) kg. The “Total cholesterol, Mean change (SD)” value in series [2] (setting [4]) is reported as 0.1 (0.7) mg/dL. Besides, the “Triglycerides, Mean change (SD)” value in series [2] (setting [4]) was −2.7 (0.6) mg/dL.

As to `Cc1cc2c(s1)Nc1ccccc1N=C2N1CCN(C)CC1` [OLZ], in series [1] (baseline BMI 18.5-25 kg/m^2), the “≧7% weight increase, (%)” value is listed as 22.7% and the “Weight, Mean (SD) change from baseline” value is 2.1 (2.7) kg. In addition, in series [1] (baseline BMI <18.5 kg/m^2), the “≧7% weight increase, (%)” value is recorded as 18.8% and the “Weight, Mean (SD) change from baseline” value is reported as 1.0 (1.9) kg. Further, in series [1] (baseline BMI >25-30 kg/m^2), the “≧7% weight increase, (%)” value is recorded as 13.2% and the “Weight, Mean (SD) change from baseline” value is 2.3 (2.5) kg. Further, in series [1] (baseline BMI >30 kg/m^2), the “≧7% weight increase, (%)” value is recorded as 14.6% and the “Weight, Mean (SD) change from baseline” value was 3.3 (4.0) kg. The “Weight, Mean (SD) change from baseline” value in series [1] (baseline BMI All) is 2.4 (3.1) kg. Moreover, in series [2] (fasting), the “Fasting HDL, Mean change (SD)” value is given as −1.4 (9.2) mg/dL; the “Fasting HDL, Percentage mean change” value is −2.9%; the “Fasting LDL, Mean change (SD)” value was −0.3 (28.6) mg/dL; the “Fasting LDL, Percentage mean change” value is listed as −0.3%. Moreover, in series [2] (fasting), the “Total cholesterol, Mean change (SD)” value is reported as −4.0 (37.3) mg/dL; the “Total cholesterol, Percentage mean change” value was −2.0%; the “Triglycerides, Mean change (SD)” value is −9.2 (90.4) mg/dL; the “Triglycerides, Percentage mean change” value is listed as −5.3%. Further, in series [2] (setting [4]), the “Total cholesterol, Mean change (SD)” value is −0.7 (1.0) mg/dL and the “Triglycerides, Mean change (SD)” value is on record as 24.6 (1.3) mg/dL.

Turning to `CC(=O)CC(c1ccccc1)c1c(O)c2ccccc2oc1=O` (centres unmarked) [warfarin, reference compound], in the series on CYP2C9, CYP3A4, CYP2D6, the “PK of narrow therapeutic index compound on co-administration with bifeprunox” value was “did not affect the PK of these compounds to any relevant extent”.
